Some test systems named below: HT-29; NCI-H23; UO-31; T47D; HCC 2998; UACC-62; PC-3; HOP-62; NCI-H226; BT-549; UACC-257; 786-0; MOLT-4; Hs-578T; SNB-75.
Assay in all cases: NCI tumour cell line growth inhibition, 48 h

The record followed here is ChEMBL document CHEMBL1201862, “PubChem BioAssay data set” (2004).

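Protocol summary: plate cells (96-well), add compound at 5 concentrations, incubate 48 h, interpolate endpoints linearly. The concentration for 50% growth inhibition is given as GI50.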 The source made the active and inactive calls. No stated cut-off is given here; in the data, active = GI50 up to about 1.1 µM and inactive = higher. Bounds are passed on as bounds.

For the compound `CC1(CO)OC(n2cnc3cncnc32)CC1O` (configuration not stated), the GI50 with HT-29, in the test with NCI-H23, in the test with UO-31, in the test with T47D, in the test with HCC 2998 and in the test with UACC-62 was > 100 µM (inactive) each time. The GI50 with PC-3, in the test on HOP-62, in the test on NCI-H226, in the test with BT-549, in the test with UACC-257 and with 786-0 was > 100 µM (inactive) throughout. Further, the GI50 in the test on MOLT-4 was > 100 µM (inactive).

Regarding `O=C(COc1ccc(OCC(=O)NNC2=NC(c3cc(F)c(Cl)cc3Cl)CS2)c(Cl)c1)NNC1=NC(c2cc(F)c(Cl)cc2Cl)CS1` (configuration not stated), the GI50 was 25.6 µM (inactive) in the test with HT-29; 20.2 µM (inactive) in the test on NCI-H23; > 100 µM (inactive) in the test on UO-31; 18.6 µM (inactive) in the test with UACC-62; 22.1 µM (inactive) with PC-3; > 100 µM (inactive) with HOP-62. The GI50 is 19.1 µM (inactive) in the test with NCI-H226; 24.1 µM (inactive) with BT-549; 48 µM (inactive) in the test with UACC-257; 20.6 µM (inactive) in the test on Hs-578T; 60.4 µM (inactive) with 786-0; 26.2 µM (inactive) in the test on MOLT-4.

As to `CC12C(=O)OC(=O)C1(C)C1C=CC2O1` (configuration not stated), the GI50 is > 100 µM (inactive) in the test with HT-29; > 100 µM (inactive) in the test with NCI-H23; 62.1 µM (inactive) in the test on UO-31; > 100 µM (inactive) in the test with HCC 2998; > 100 µM (inactive) in the test with UACC-62; > 100 µM (inactive) with PC-3. For the same compound, the GI50 in the test with NCI-H226 is 21.7 µM (inactive); with BT-549, > 100 µM (inactive); in the test on UACC-257, > 100 µM (inactive); in the test on Hs-578T, 29.1 µM (inactive); in the test on 786-0, > 100 µM (inactive); with MOLT-4, > 100 µM (inactive). For the same compound, the GI50 in the test with SNB-75 is 14.9 µM (inactive).

`CC(C)(C)OC(=O)N1CCC(NC(=O)NC2CCN(C(=O)OC(C)(C)C)CC2)CC1`: the GI50 in the test with HT-29, in the test with NCI-H23, with UO-31, in the test with HCC 2998, with UACC-62 and with PC-3 was > 100 µM (inactive) throughout. Besides, the GI50 is > 100 µM (inactive) with HOP-62; 0.118 µM (active) in the test with BT-549; > 100 µM (inactive) with UACC-257; > 100 µM (inactive) with Hs-578T; > 100 µM (inactive) in the test on 786-0; > 100 µM (inactive) with SNB-75.

As to `CC(C)n1c(=O)n(-c2ccccc2)n(C(C)(C)C)c1=O`, the GI50 is > 100 µM (inactive) with HT-29; 83.2 µM (inactive) in the test on NCI-H23; > 100 µM (inactive) with UO-31; > 100 µM (inactive) with HCC 2998; > 100 µM (inactive) with UACC-62; > 100 µM (inactive) with PC-3. Further, the GI50 in the test with HOP-62, in the test with NCI-H226, in the test on BT-549, in the test on UACC-257, in the test on Hs-578T and in the test with 786-0 was > 100 µM (inactive) in each case. Also, the GI50 in the test with MOLT-4 and with SNB-75 was > 100 µM (inactive) each time.

In the case of `COC(=O)/C(C#N)=C(\N)c1c(C)c2ccccc2oc1=N`, the GI50 with T47D is > 100 µM (inactive); with UACC-62, > 100 µM (inactive); in the test on PC-3, > 100 µM (inactive); in the test with HOP-62, > 100 µM (inactive); in the test on BT-549 it was 64.6 µM (inactive); in the test on UACC-257 it was > 100 µM (inactive). Moreover, the GI50 in the test with Hs-578T, with 786-0, in the test with MOLT-4 and in the test on SNB-75 was > 100 µM (inactive) in each case.

On to `COc1cc(/C=C2\C[C@H]3[C@@H]4CCc5cc(O)ccc5[C@H]4CC[C@]3(C)C2=O)cc(OC)c1OC`, for which the GI50 was 12.5 µM (inactive) in the test on HT-29; 14.4 µM (inactive) with NCI-H23; 11.6 µM (inactive) with UO-31; 13.5 µM (inactive) with T47D; 12.9 µM (inactive) with HCC 2998; 22.7 µM (inactive) in the test on UACC-62. The GI50 is 10.1 µM (inactive) in the test on PC-3; 12.4 µM (inactive) with HOP-62; 6.05 µM (inactive) in the test with NCI-H226; 18.9 µM (inactive) with BT-549; 10.8 µM (inactive) in the test with UACC-257; 15.6 µM (inactive) in the test on 786-0. Also, the GI50 in the test on MOLT-4 is 11.1 µM (inactive); in the test on SNB-75 it was 12.2 µM (inactive).

As to `NCc1ccc(-c2ccc(-c3ccc(-c4ccc(CN)s4)s3)s2)s1`, the GI50 with HT-29, in the test on NCI-H23, with UO-31, in the test with T47D, with HCC 2998 and with UACC-62 was > 100 µM (inactive) each time. Further, the GI50 in the test with PC-3, with HOP-62, in the test on NCI-H226, with UACC-257, in the test on 786-0 and in the test with MOLT-4 was > 100 µM (inactive) in each case. In addition, the GI50 with SNB-75 is > 100 µM (inactive).

As to `Cn1c2ccccc2c2c3c(c4c5ccccc5n(C)c4c21)C(=O)c1ccccc1C3=O`, the GI50 in the test with HT-29 is > 100 µM (inactive); in the test on NCI-H23, 18.6 µM (inactive); with UO-31, 67.3 µM (inactive); with T47D, 13.2 µM (inactive); in the test on HCC 2998, 96.8 µM (inactive); in the test on UACC-62, 25.9 µM (inactive). For the same compound, the GI50 with PC-3 is 45.8 µM (inactive); in the test on HOP-62, 31.1 µM (inactive); in the test on NCI-H226 it was > 100 µM (inactive); in the test on BT-549, 20.4 µM (inactive); with UACC-257 it was 79.6 µM (inactive); in the test on 786-0, 14.1 µM (inactive). The GI50 is > 100 µM (inactive) with MOLT-4 and 35.3 µM (inactive) in the test on SNB-75.

As to `COc1cc(C2c3cc4c(cc3[C@@H](Nc3ccc(F)cc3)C3COC[C@H]23)OCO4)cc(OC)c1O` (some centres not stated), the GI50 with HT-29 is 3.44 µM (inactive); in the test on UO-31 it was 0.488 µM (active); in the test on T47D, 1.74 µM (inactive); in the test with HCC 2998, 6.85 µM (inactive); in the test on PC-3, 3.26 µM (inactive); with HOP-62, 2.45 µM (inactive). The GI50 is 7.82 µM (inactive) in the test with UACC-257; 0.589 µM (active) in the test with Hs-578T; 1.75 µM (inactive) with 786-0; 0.118 µM (active) in the test with MOLT-4; 2.77 µM (inactive) in the test on SNB-75.

For the compound `CC1(C)CCSC(/C=C/c2ccccc2)=N1`, the GI50 in the test with HT-29 was 18.4 µM (inactive); in the test on NCI-H23, 17.8 µM (inactive); in the test with PC-3, 16.6 µM (inactive); in the test with HOP-62, 16.4 µM (inactive); in the test on BT-549 it was 7.14 µM (inactive); in the test with UACC-257, 13 µM (inactive). Moreover, the GI50 in the test with Hs-578T was 43.4 µM (inactive); in the test with 786-0, 12.9 µM (inactive); in the test with MOLT-4 it was 19 µM (inactive).

Consider `CC(C)(C)[Si](C)(C)OC1(CCc2ccccc2OS(=O)(=O)C(F)(F)F)CCCC=C1COCc1ccccc1` (configuration not stated), for which the GI50 was 9.62 µM (inactive) in the test on NCI-H23; 6.35 µM (inactive) with T47D; 29.5 µM (inactive) in the test with UACC-62; 3.51 µM (inactive) with PC-3; > 100 µM (inactive) in the test on HOP-62; 46.1 µM (inactive) in the test on NCI-H226. Also, the GI50 in the test with BT-549 was > 100 µM (inactive); with 786-0 it was > 100 µM (inactive); in the test on MOLT-4, 5.14 µM (inactive); in the test on SNB-75, 8.61 µM (inactive).

As to `CC[C@@H]1ON(C)[C@H]2CN(C)C(=O)[C@@H]12`, the GI50 in the test with HT-29, in the test on NCI-H23, in the test with UO-31, in the test with T47D, with HCC 2998 and in the test on PC-3 was > 100 µM (inactive) in each case. Also, the GI50 in the test with HOP-62, in the test with NCI-H226, with UACC-257, in the test with Hs-578T and in the test with MOLT-4 was > 100 µM (inactive) in each case.

For the compound `Cc1n[nH]c(=O)n1N=C(c1ccccc1)c1ccccc1`, the GI50 in the test on HT-29, with NCI-H23, in the test on UO-31, in the test with UACC-62, with PC-3 and in the test with HOP-62 was > 100 µM (inactive) throughout. Also, the GI50 in the test on NCI-H226, in the test on BT-549, in the test on UACC-257, with Hs-578T, in the test on 786-0 and with MOLT-4 was > 100 µM (inactive) in each case.

Take `COc1ccc(NC(C)=O)cc1N1C(=O)/C(=C\c2cc(OC)c(OC)c(OC)c2)S(=O)(=O)C1c1ccccc1` (configuration not stated): the GI50 with HT-29 was 47.2 µM (inactive); in the test on NCI-H23 it was 71.4 µM (inactive); in the test on UO-31, 38.7 µM (inactive); in the test with T47D, 38.3 µM (inactive); with HCC 2998 it was > 100 µM (inactive); with UACC-62, 65.6 µM (inactive). The GI50 is 39.3 µM (inactive) in the test with PC-3; 78.2 µM (inactive) in the test on HOP-62; 26.5 µM (inactive) with NCI-H226; > 100 µM (inactive) in the test with BT-549; 89.5 µM (inactive) with UACC-257; 72.9 µM (inactive) in the test with 786-0. Moreover, the GI50 was 22 µM (inactive) in the test on MOLT-4 and 39 µM (inactive) in the test with SNB-75.

With `CN(C)CC1CN=C(N)O1` (configuration not stated), the GI50 in the test with NCI-H23, with UO-31, with HCC 2998, in the test with UACC-62, in the test on PC-3 and with HOP-62 was > 100 µM (inactive) throughout. Also, the GI50 in the test with NCI-H226, with UACC-257, in the test on 786-0 and in the test on MOLT-4 was > 100 µM (inactive) in each case.
